Experimental data reported in BindingDB's records for doi:10.1021/jm00107a034 (Sterling Research Group, 1991).

What was measured:
[1] = Concentration required to inhibit 50% activity of prostaglandin synthetase was determined in mouse vas deferens
[2] = Concentration required to inhibit 50% activity of prostaglandin synthetase was determined in vitro in mouse brain microsomes

Compound: Cc1c(C(=O)c2cccc3ccccc23)c2ccccc2n1CCN1CCOC(O)C1 (centres undefined)
- IC50 [1]: 0.57 µM

Compound: COc1ccc(C(=O)c2cn(CCN3CCOCC3)c3ccccc23)cc1
- IC50 [1]: 5 µM
- IC50 [2]: > 30 µM

Compound: COc1ccc(C(=O)c2c(C)n(CCN3CCOCC3)c3ccccc23)cc1 [(s-cis) -(4-Methoxy-phenyl)-[2-methyl-1-(2-morpholin-4-yl-ethyl)-1H-indol-3-yl]-methanone]
- IC50 [1]: > 30 µM
